# Read-outs that look alike come from different tables or passages of the source.
# Columns and labels:
# [1] = system: TNFα secretion from PMA/ionomycin stimulated white blood cells from human buffy coat; test: TNFα secretion assay, PMA/ionomycin stimulation
# Method: (§1) Various concentrations of each test compound were added at the time of stimulation. […] After the plate was washed with 0.1% Tween 20/PBS, an HRP-luminescent substrate was added to each well and light intensity measured using a LJL Analyst plate luminometer.
# [2] = system: TNFα secretion from LPS stimulated white blood cells from human buffy coat; test: TNFα secretion assay, LPS stimulation; settings: Homo sapiens, read-out: percent inhibition of TNFα secretion, LPS; for inhibition at 0.008 µM: Prednisolone 0.008 μM; for inhibition at 0.5 µM: Prednisolone 0.5 μM; for inhibition at 1 µM: Prednisolone 1 μM
# Method: as §1
# [3] = Amoxapine μM r5-r13: 0,0.25,0.5,1,2,4,8,16,32
# [4] = Clomipramine μM r5-r13: 0,0.45,0.89,1.8,3.6,7.1,14,28,57
# [5] = Desipramine μM r5-r13: 0,0.5,1,2,4,8,16,32,64
# [6] = Fluoxetine μM r5-r13: 0,0.23,0.45,0.9,1.8,3.6,7.2,14,29
# [7] = Loxapine μM r5-r13: 0,0.35,0.7,1.4,2.8,5.6,11,22,45
# [8] = Norclozapine μM r5-r13: 0,0.21,0.41,0.83,1.7,3.3,6.6,13,27
# [9] = Nortriptyline μM r5-r13: 0,0.52,1,2.1,4.2,8.3,17,33,67
compound,measurement,setting,value
"C[C@]12C=CC(=O)C=C1CC[C@@H]1[C@@H]2[C@@H](O)C[C@@]2(C)[C@H]1CC[C@]2(O)C(=O)CO [Prednisolone, prednisolone]",inhibition at 0.01 µM,"[1]; read-out: inhibition of TNFα secretion, Prednisolone 10 nM, Desipramine nM: 0, 50, 200, 799, 3197, 13000",-0.66%
same,inhibition at 0.01 µM,"[1]; read-out: inhibition of TNFα secretion, Prednisolone 10 nM, Imipramine nM: 0, 99, 394, 1578, 6311, 25000",0.037%
same,inhibition at 0.01 µM,"[1]; read-out: inhibition of TNFα secretion, Prednisolone 10 nM, Nortriptyline nM: 0, 52, 208, 834, 3336, 13000",4.27%
same,inhibition at 0.01 µM,"[1]; read-out: inhibition of TNFα secretion, Prednisolone 10 nM, Protriptyline nM: 0, 52, 208, 834, 3336, 13000",0.0342%
same,inhibition at […],"[1]; read-out: inhibition of TNFα secretion, Prednisolone 42 nM, Desipramine nM: 0, 50, 200, 799, 3197, 13000",3.62%
same,inhibition at […],"[1]; read-out: inhibition of TNFα secretion, Prednisolone 42 nM, Imipramine nM: 0, 99, 394, 1578, 6311, 25000",5.58%
same,inhibition at […],"[1]; read-out: inhibition of TNFα secretion, Prednisolone 42 nM, Nortriptyline nM: 0, 52, 208, 834, 3336, 13000",7.41%
same,inhibition at 2.656 µM,"[1]; read-out: inhibition of TNFα secretion, Prednisolone 2656 nM, Desipramine nM: 0, 50, 200, 799, 3197, 13000",38.8%
same,inhibition at 2.656 µM,"[1]; read-out: inhibition of TNFα secretion, Prednisolone 2656 nM, Imipramine nM: 0, 99, 394, 1578, 6311, 25000",40.5%
same,inhibition at 2.656 µM,"[1]; read-out: inhibition of TNFα secretion, Prednisolone 2656 nM, Nortriptyline nM: 0, 52, 208, 834, 3336, 13000",38.3%
same,inhibition at 2.656 µM,"[1]; read-out: inhibition of TNFα secretion, Prednisolone 2656 nM, Protriptyline nM: 0, 52, 208, 834, 3336, 13000",45.2%
same,inhibition at 0.008 µM,"[1]; read-out: percent inhibition of TNFα secretion, PMA/ionomycin, Prednisolone 0.008 μM, Amoxapine μM r5-r13: 0,0.25,0.5,1,2,4,8,16,32",-2.11%
same,inhibition at 0.008 µM,"[1]; read-out: percent inhibition of TNFα secretion, PMA/ionomycin, Prednisolone 0.008 μM, Norclozapine μM r5-r13: 0,0.21,0.41,0.83,1.7,3.3,6.6,13,27",17%
same,inhibition at 0.008 µM,"[1]; read-out: percent inhibition of TNFα secretion, PMA/ionomycin, Prednisolone 0.008 μM, Nortriptyline μM r5-r13: 0,0.52,1,2.1,4.2,8.3,17,33,67",9.54%
same,inhibition at 0.5 µM,"[1]; read-out: percent inhibition of TNFα secretion, PMA/ionomycin, Prednisolone 0.5 μM, Amoxapine μM r5-r13: 0,0.25,0.5,1,2,4,8,16,32",25%
same,inhibition at 0.5 µM,"[1]; read-out: percent inhibition of TNFα secretion, PMA/ionomycin, Prednisolone 0.5 μM, Norclozapine μM r5-r13: 0,0.21,0.41,0.83,1.7,3.3,6.6,13,27",44%
same,inhibition at 0.5 µM,"[1]; read-out: percent inhibition of TNFα secretion, PMA/ionomycin, Prednisolone 0.5 μM, Nortriptyline μM r5-r13: 0,0.52,1,2.1,4.2,8.3,17,33,67",29.2%
same,inhibition at 1 µM,"[1]; read-out: percent inhibition of TNFα secretion, PMA/ionomycin, Prednisolone 1 μM, Amoxapine μM r5-r13: 0,0.25,0.5,1,2,4,8,16,32",29.5%
same,inhibition at 1 µM,"[1]; read-out: percent inhibition of TNFα secretion, PMA/ionomycin, Prednisolone 1 μM, Nortriptyline μM r5-r13: 0,0.52,1,2.1,4.2,8.3,17,33,67",38.5%
same,inhibition at 0.008 µM,"[1]; read-out: percent inhibition of TNFα secretion, Prednisolone 0.008 μM, Clomipramine μM 0, 0.45, 0.89, 1.8, 3.6, 7.1, 14, 28, 57",7.57%
same,inhibition at 0.008 µM,"[1]; read-out: percent inhibition of TNFα secretion, Prednisolone 0.008 μM, Desipramine μM 0, 0.5, 1, 2, 4, 8, 16, 32, 64",3.11%
same,inhibition at 0.008 µM,"[1]; read-out: percent inhibition of TNFα secretion, Prednisolone 0.008 μM, Fluoxetine μM by grid row: r5 0, r6 0.23, r7 0.45, r8 0.9, r9 1.8, r10 3.6, r11 7.2, r12 14, r13 29",6.63%
same,inhibition at 0.008 µM,"[1]; read-out: percent inhibition of TNFα secretion, Prednisolone 0.008 μM, Loxapine μM 0, 0.35, 0.7, 1.4, 2.8, 5.6, 11, 22, 45",3.36%
same,inhibition at 0.01 µM,"[1]; read-out: percent inhibition of TNFα secretion, Prednisolone 10 nM, Amitriptyline nM: 0, 50, 199, 796, 3186, 13000",-1.26%
same,inhibition at 0.01 µM,"[1]; read-out: percent inhibition of TNFα secretion, Prednisolone 10 nM, Amoxapine nM: 0, 12, 50, 199, 797, 3187",1.28%
same,inhibition at 0.01 µM,"[1]; read-out: percent inhibition of TNFα secretion, Prednisolone 10 nM, Clomipramine nM: 0, 45, 178, 712, 2848, 11000",0.29%
same,inhibition at […],"[1]; read-out: percent inhibition of TNFα secretion, Prednisolone 42 nM, Amitriptyline nM: 0, 50, 199, 796, 3186, 13000",7.27%
same,inhibition at […],"[1]; read-out: percent inhibition of TNFα secretion, Prednisolone 42 nM, Amoxapine nM: 0, 12, 50, 199, 797, 3187",7.71%
same,inhibition at […],"[1]; read-out: percent inhibition of TNFα secretion, Prednisolone 42 nM, Clomipramine nM: 0, 45, 178, 712, 2848, 11000",6.83%
same,inhibition at 0.5 µM,"[1]; read-out: percent inhibition of TNFα secretion, Prednisolone 0.5 μM, Clomipramine μM 0, 0.45, 0.89, 1.8, 3.6, 7.1, 14, 28, 57",33.4%
same,inhibition at 0.5 µM,"[1]; read-out: percent inhibition of TNFα secretion, Prednisolone 0.5 μM, Desipramine μM 0, 0.5, 1, 2, 4, 8, 16, 32, 64",32.6%
same,inhibition at 0.5 µM,"[1]; read-out: percent inhibition of TNFα secretion, Prednisolone 0.5 μM, Fluoxetine μM by grid row: r5 0, r6 0.23, r7 0.45, r8 0.9, r9 1.8, r10 3.6, r11 7.2, r12 14, r13 29",39.3%
same,inhibition at 0.5 µM,"[1]; read-out: percent inhibition of TNFα secretion, Prednisolone 0.5 μM, Loxapine μM 0, 0.35, 0.7, 1.4, 2.8, 5.6, 11, 22, 45",31%
same,inhibition at 1 µM,"[1]; read-out: percent inhibition of TNFα secretion, Prednisolone 1 μM, Clomipramine μM 0, 0.45, 0.89, 1.8, 3.6, 7.1, 14, 28, 57",37.5%
same,inhibition at 1 µM,"[1]; read-out: percent inhibition of TNFα secretion, Prednisolone 1 μM, Desipramine μM 0, 0.5, 1, 2, 4, 8, 16, 32, 64",35.2%
same,inhibition at 1 µM,"[1]; read-out: percent inhibition of TNFα secretion, Prednisolone 1 μM, Fluoxetine μM by grid row: r5 0, r6 0.23, r7 0.45, r8 0.9, r9 1.8, r10 3.6, r11 7.2, r12 14, r13 29",30.6%
same,inhibition at 1 µM,"[1]; read-out: percent inhibition of TNFα secretion, Prednisolone 1 μM, Loxapine μM 0, 0.35, 0.7, 1.4, 2.8, 5.6, 11, 22, 45",34.8%
same,inhibition at 2.656 µM,"[1]; read-out: percent inhibition of TNFα secretion, Prednisolone 2656 nM, Amitriptyline nM: 0, 50, 199, 796, 3186, 13000",41.6%
same,inhibition at 2.656 µM,"[1]; read-out: percent inhibition of TNFα secretion, Prednisolone 2656 nM, Amoxapine nM: 0, 12, 50, 199, 797, 3187",39%
same,inhibition at 2.656 µM,"[1]; read-out: percent inhibition of TNFα secretion, Prednisolone 2656 nM, Clomipramine nM: 0, 45, 178, 712, 2848, 11000",42.1%
same,inhibition at 0.008 µM,[2]; [3],3.67%
same,inhibition at 0.008 µM,[2]; [4],2.55%
same,inhibition at 0.008 µM,[2]; [5],4.87%
same,inhibition at 0.008 µM,[2]; [6],1.18%
same,inhibition at 0.008 µM,[2]; [7],4.44%
same,inhibition at 0.008 µM,[2]; [8],18%
same,inhibition at 0.008 µM,[2]; [9],0.348%
same,inhibition at 0.5 µM,[2]; [3],59.1%
same,inhibition at 0.5 µM,[2]; [4],64.8%
same,inhibition at 0.5 µM,[2]; [5],57.6%
same,inhibition at 0.5 µM,[2]; [6],63.9%
same,inhibition at 0.5 µM,[2]; [7],68.8%
same,inhibition at 0.5 µM,[2]; [8],79%
same,inhibition at 0.5 µM,[2]; [9],51.9%
same,inhibition at 1 µM,[2]; [3],66.2%
same,inhibition at 1 µM,[2]; [4],66.9%
same,inhibition at 1 µM,[2]; [5],59.1%
same,inhibition at 1 µM,[2]; [6],71%
same,inhibition at 1 µM,[2]; [7],68.7%
same,inhibition at 1 µM,[2]; [8],83%
same,inhibition at 1 µM,[2]; [9],53.4%

# — patent publication US20090075951A1, “Methods and Reagents for the Treatment of Inflammatory Disorders” (CombinatoRx, Inc., priority 2003, published 2009)
